# Laboratory results from patent US12428465B2, “Therapeutic peptides and methods for treating type 2 diabetes” (OP-T LLC, priority 2018, dated 2025).
# What was measured:
# human B cells = settings: cited from earlier work
# ApoE-/- mice [1] = test: LDL cholesterol in ApoE-/- mice; assay type: in vivo, mouse; settings: 1 mg/kg IV once a week for 4 weeks
# Procedure: In this study, six ApoE−/− mice received a normal chow diet from 0 to 20 weeks of age. At 20 weeks of age, three mice were randomly assigned to receive dose of 1 mg/kg of KGYY6 (6-mer-SEQ ID NO:29) by IV tail injection, once a week for a period of 4 weeks. Control mice received vehicle only.
# ApoE-/- mice [2] = test: Atherosclerotic changes in high fat diet ApoE-/- mice (Sudan IV en-face, Paigen method, trichrome); assay type: in vivo, mouse
# Procedure: ApoE−/− mice were fed a high fat diet for 16 weeks. Mice were randomly assigned to receive dose of 1 mg/kg of KGYY6 (6-mer-SEQ ID NO:29) by IV tail injection, once a week for a period of 4 weeks. Control mice received vehicle only. Atherosclerosis was investigated by several methods. […] FIG. 28A is an image of KGYY6 treated aortic en-face Sudan IV staining and FIG. 28B is an image of control (untreated) aortic en-face Sudan staining.
# Further, measurement of plaque area and morphology was performed using the Paigen method. This method obtains sequential 5 μm aortic cross sections from the aortic root beginning at the valve leaflets into the ascending aorta. At 50 μm intervals, slides are stained after which the area of atherosclerotic lesion is measured. Individual plaque area measurements are plotted against the micrometer intervals and a curve is established, with the area under the curve (AUC) giving the total volume of plaque.
# ApoE-/- mice [3] = test: Glucose tolerance testing and serum insulin in high fat diet ApoE-/- mice; assay type: in vivo, mouse
# Excerpt: One example of a disease that is particularly amenable to treatment using a peptide of the present developments may be type 2 diabetes. In type 2 diabetes, glucose tolerance is reduced, insulin sensitivity is decreased, and plasma insulin levels are increased. Consequently, control of inflammatory cells and cell signaling via CD40-CD154 interaction may be able to be used to control, modulate, reduce and/or reverse type 2 diabetes symptoms that are characterized as by glucose intolerance, insulin resistance, and increased plasma insulin levels. Several murine models of T2D and/or atherosclerosis have been developed. For initial studies, ApoE−/− mice were selected due to their ability to develop type 2 diabetes from a high fat diet. Glucose tolerance and insulin testing were performed on all of the mice. The mice were administered the 6-mer peptide (SEQ ID NO:29) at a rate of 1 mg/kg weekly via I.V, injection and monitored. […] Thus, one embodiment of the present developments is a method to prevent type 2 diabetes in an individual at risk for developing type 2 diabetes, the method comprising administering to the individual a peptide to selectively bind to a CD40 expressing cell. In such an embodiment, the peptide may be selected from SEQ ID NOS: 3-9 and 24-30.
# ApoE−/− mice were fed a 60% high fat diet (research diet) for 1 week. A select population of mice were then injected with 6-mer peptide at a dose of 1 mg/kg and others were untreated and tracked as controls. Glucose tolerance testing (GTT) was performed by fasting 6 hours, followed by intraperitoneal injection of 1 g/kg body weight glucose in water. Both blood glucose and blood serum insulin were measured at 0, 15 minutes, 30 minutes, 60 minutes, and 2 hours.
# GLUT4 = test: Western analysis of GLUT4 in adipose and muscle tissue of treated mice; assay type: in vivo, mouse; settings: treated versus untreated mice
# Excerpt: GLUT4 is responsible for glucose uptake in response to insulin and known to have reduced expression in type 2 diabetes.
# Th40 cells = test: Cytokine production of splenic lymphocytes (Th40 cells) treated in vitro, flow cytometry; assay type: cell-based, mouse; settings: splenic lymphocytes of ApoE-/- and C57BL/6 mice, 24 hours in vitro, varying concentrations
# Procedure: Spleens from ApoE mice and C57BL/6 mice were processed for lymphocytes. ApoE−/− and C57BL/6 mice were fed a 60% high fat diet (research diet) for 1 week. Splenic lymphocytes were treated with 6-mer in vitro for 24 hours. Cells were placed in media overnight in the presence of varying concentrations of 6-mer peptides. The following morning. Brefeldin A was administered for 4 hours. All cells were stained for CD3, CD4, CD40 (Th40 cells) and measured by use of flow cytometry for their production of IL2, INFγ, and IL17a.
# NOD mice [4] = test: Development of diabetes in NOD mice treated with CD154 peptides; assay type: in vivo, mouse; settings: 25 ug (1 mg/kg) tail vein weekly from 6 weeks of age
# Procedure: (§1) Peptides were designed based on the amino acid sequence of mouse CD154 protein (SEQ ID NO:1) in the SwissPro database. […] Weekly after the initial injection, another 25 ug of peptide (or 100 ul of saline in the case of the Control mice) was injected into the tail vein. At 10 weeks of age, mice were monitored for diabetes, as indicated by a blood glucose level greater than 250 mg/dL for three consecutive days. During this time, blood was also taken from the tail vein, or by sub-mandibular venal puncture, and the level of CD4+ and CD8+ cells determined by flow cytometry using antibodies for CD4 protein and CD8 protein.
# NOD mice [5] = test: CD4/CD8 ratio in blood of treated NOD mice by flow cytometry; assay type: in vivo, mouse; settings: 25 ug (1 mg/kg) tail vein weekly
# Procedure: as §1
# NOD mice [6] = test: Reversal of hyperglycemia in newly diabetic NOD mice; assay type: in vivo, mouse
# Procedure: Six mice from Example 1 that were not treated were allowed to subsequently develop diabetes. These mice were injected intravenously with 100 ug of the 15-mer peptide. These mice were then given weekly injections of the 15-mer peptide into their tail veins, and their blood glucose levels monitored twice-weekly. The 15-mer peptide was administered for a total of ten weeks, after which the treatment was stopped.
# (§2) At the onset of diabetes, six NOD mice were injected with […] of the 15-mer peptide, resulting in the reversal of hyperglycemia in 80% of the recipients. Six weeks after reversal of hyperglycemia, mice were sacrificed, and the pancreas removed for analysis. The pancreas was fixed, sectioned and then stained using an aldehyde/fuschsin stain that allows detection of insulin granules. Granulation of the tissue was scored as follows: 4=completely granulated; 3=75% of islet granulated; 2=50% of islet granulated, and peri-insulitis; 1=25% of islet granulated; 0=no insulin granules detected.
# CD40+ T-cells = test: Binding of FITC-labeled 15-mer peptide to Th40 cells, flow cytometry; design: species or system mouse; settings: lymphocytes of 9 week old NOD mice
# Procedure: Total lymphocytes were isolated from 9 week old NOD mice. The lymphocytes were incubated with anti-CD4, anti-CD8, anti-CD40 and an FITC-labeled 15-mer peptide, and then analyzed by flow cytometry. Cells were gated for CD4 (both CD4hi and CD4lo populations were included) and CD40 versus the 15-mer peptide.
# B cells = test: Binding of FITC-labeled 15-mer peptide to B cells, flow cytometry; design: species or system mouse; settings: spleen B cells of NOD mice, 90% CD40 positive
# Procedure: B cells were isolated from the spleens of NOD mice. Sorted MHC-II+ cells were purified from total lymphocytes. Cells were stained with FITC-labeled 15 mer peptide, anti-CD40, and B cell markers CD19 and CD21. MHC-II+ cells were gated for CD19+ and CD21+ and then 15-mer peptide versus CD40 antibody was measured.
# blood cells = test: Binding of biotin-conjugated 15-mer peptide to whole blood cells, HRP-avidin absorbance at 405 nm; design: species or system human; settings: 1 ml whole blood
# Procedure: 1 ml of whole blood was obtained from each individual and incubated with biotin-conjugated, 15-mer peptide. The cells were then exposed to horseradish peroxidase (HRP)-avidin, washed and the absorbance at 405 nm determined using a spectrophotometer.
# NOD mice [7] = test: Insulin granulation of the pancreas in NOD mice, aldehyde/fuschsin stain; assay type: in vivo, mouse; settings: six weeks after reversal of hyperglycemia; versus irrelevant peptide
# Procedure: as §2
# ApoE deficient mice = test: Atherosclerosis in ApoE deficient mice, lesser curvature of the aortic arch; assay type: in vivo, mouse; settings: 1 mg/kg IV three times a week from 9 weeks of age, normal chow
# Procedure: ApoE deficient mice on a normal chow diet were selected to receive a dose of 1 mg/kg of the 15-mer peptide (SEQ ID NO: 7) by IV tail injection, three times a week over a period of […], beginning at 9 weeks of age and also utilized a control. At 25 weeks, the animals were euthanized, weighed, and then had blood, spleen, and pancreas removed for analysis. The subjects were then perfused through cardiac puncture with 4% paraformaldehyde. Aortic arches were dissected, dehydrated in sucrose gradient and then flash frozen.
# FIG. 17 provides an example of the lesser curvature of the aortic arch, defined proximally from the aortic outflow (AO). Of the segments seen in the trichrome stain, an intimal distance of […] was measured distally. The aortic-arch wall area subtended by this 2.5 mm stretch of the intima was calculated for each section of all mice, with maximal area of the inner-aortic-arch wall of each mouse used to compute averages per group. The luminal surface (L), aortic arch (AO), and innominate artery (I) are labelled in this FIG. 17.
# Plaque was subdivided based on morphology of early lesions (observable as fatty streaks containing macrophage derived foam cells with varying degrees of lipid accumulation) compared with more advanced fibroatheromas (containing varying degrees of lipid or necrotic core and fibrous caps). […]
# ApoE-/- mice [8] = test: Existing atherosclerotic disease in ApoE-/- mice, plaque cap and core measurements; assay type: in vivo, mouse; settings: 1 mg/kg IV once a week for 4 weeks from 20 weeks of age
# Procedure: In this study, six ApoE−/− mice received a normal chow diet from 0 to 20 weeks of age. At 20 weeks of age, three mice were randomly assigned to receive dose of 1 mg/kg of KGYY15 (15-mer-SEQ ID NO:7) by IV tail injection, once a week for a period of 4 weeks. Control mice received vehicle only. After 4 weeks of treatment, animals were euthanized then perfused through cardiac puncture with 4% paraformaldehyde. Aortic arches were dissected in surcrose gradient and flash frozen. Approximately fifty, 8 um longitudinal sections were obtained per mouse. Slides were treated with trichrome stain and analyzed using cellSens software for measurements. Total plaque was measured including 2.5 mm lesser curvature and innominate artery.
# [9] = Clot study of whole human blood in the presence of peptide; settings: dosing levels similar to murine studies
# Procedure: Whole human blood was administered the peptide in accordance with similar dosing levels to those used for murine studies.
# [10] = high fat diet 16 weeks, 1 mg/kg IV once a week for 4 weeks
# [11] = trichrome staining, Image Pro Plus analysis
compound,measurement,setting,value
Cc1ccc(C(=O)Nc2ccc(S(=O)(=O)O)c3cc(S(=O)(=O)O)cc(S(=O)(=O)O)c23)cc1NC(=O)c1cccc(NC(=O)Nc2cccc(C(=O)Nc3cc(C(=O)Nc4ccc(S(=O)(=O)O)c5cc(S(=O)(=O)O)cc(S(=O)(=O)O)c45)ccc3C)c2)c1 [suramin],CD154-induced proliferation of human B cells,human B cells,prevented
"AKKGYY [KGYY6, 6-mer peptide from CD154]",reduction in LDL cholesterol values versus untreated mice,ApoE-/- mice [1],> 50%
same,"lesion areas, en-face Sudan IV stain",ApoE-/- mice [2]; [10],significant reduction
same,"plaque volume (area under the curve, Paigen method)",ApoE-/- mice [2]; [10],reduction
same,plaque composition: collagen,ApoE-/- mice [2]; [11],increased
same,plaque composition: smooth muscle content,ApoE-/- mice [2]; [11],reduced
same,insulin sensitivity compared to controls,ApoE-/- mice [3]; 1 mg/kg,significantly improved
same,plasma insulin levels compared to controls,ApoE-/- mice [3]; 1 mg/kg,lowered
same,insulin resistance compared to controls,ApoE-/- mice [3]; 1 mg/kg weekly I.V.,improve
same,glucose tolerance compared to controls,"ApoE-/- mice [3]; 1 mg/kg, GTT 1 g/kg glucose i.p. after 6 hours fasting",significantly increased
same,expression of GLUT4 in muscle tissue,GLUT4,increased expression
same,expression of GLUT4 in white adipose tissue,GLUT4,increase in expression
same,"inflammatory cytokine production of IL2, INFγ, and IL17a",Th40 cells,affects
"VLQWAKKGYYTMK [13-mer peptides, 13-mer peptide derived from the CD154 protein]",development of diabetes (blood glucose greater than 250 mg/dL for three consecutive days),NOD mice [4],significant effects on the development of diabetes
"VLQWAKKGYYTMKSN (VLQWAKKGYYTMKSK) [15-mer peptide, 15-mer peptide derived from the mouse CD154 protein]",development of diabetes (blood glucose greater than 250 mg/dL for three consecutive days),NOD mice [4],prevented the onset of diabetes
same,compromise of the immune system as determined by the CD4/CD8 ratio,NOD mice [5],did not result in compromise of the immune system
same,reversal of hyperglycemia in already diabetic mice,NOD mice [6]; 100 ug IV then weekly injections for ten weeks,can reverse hyperglycemia
same,recipients with reversal of hyperglycemia,NOD mice [6]; six NOD mice injected with 100 ug/ml at the onset of diabetes,80%
same,return of hyperglycemia after cessation of the treatment,NOD mice [6]; treatment stopped after ten weeks,≤ 5 weeks
same,CD40+ T-cells that bind the peptide,CD40+ T-cells,90%
same,B cells that bound the peptide,B cells,8%
same,"peptide binding activity of blood cells, type-I diabetes patients versus non-diabetic controls",blood cells,higher
same,insulin granules in the pancreas,NOD mice [7],preserved insulin granules in the majority of the mice
same,total area of the 2.5 mm segment of the aortic-arch wall,ApoE deficient mice,substantially reduced
same,total number of plaque (early lesions and advanced plaque),ApoE deficient mice,significantly decreased
same,average cap width (cap size),ApoE-/- mice [8],greater
same,average core width (core size/plaque size),ApoE-/- mice [8],decreased
same,cap to core ratio of advanced plaques,ApoE-/- mice [8],reduced
same,number of individual early plaques and advanced plaques,ApoE-/- mice [8],reduced
same,clotting of whole human blood,[9],does not modify or change the clotting
